# Source: US20210015793A1, “COMPOUNDS FOR TREATING CNS- AND NEURODEGENERATIVE DISEASES” (ETH ZURICH, priority 2018, published 2021)
# System: Tg-TauP301L mice
# Test: Hippocampal PHF Tau hyperphosphorylation (AT8) in Tg-TauP301L model of tauopathy
# Assay type: in vivo, mouse
# Details: 12 months-old Tg-TauP301L mice treated for 6 months
# Description: For a genetic model of familial AD (FAD), Tg2576 mice (Taconic Biosciences, Rensselaer, N.Y., USA) were used with neuron-specific overexpression of human APPSwe, i.e the Swedish mutation of APP695 isolated from a Swedish family with FAD featuring the double mutation K670N/M671L (Hsiao et al., Science 274, 99-103 (1996)). As a genetic model of tauopathy, the Tg-TauP301L mice (Model 2508, Taconic Biosciences, Rensselaer, N.Y., USA) with neuron-specific expression of the most common FTDP-17 (frontotemporal dementia and parkinsonism linked to chromosome 17) mutation (Lewis et al., Nature Genetics 25, 402-405 (2000)) were used. To enhance neurodegeneration and neuronal loss, the CUMS (chronic unpredictable mild stress) protocol was performed with male 12 months-old Tg2576 mice for 3 months essentially as described (AbdAlla et al., J. Biol. Chem. 284, 6554-6565 (2009); AbdAlla et al., J. Biol. Chem. 284, 6566-6574 (2009)). […]
# Similarly, hyperphosphorylated Tau was detected with AT8 antibody on paraffin-embedded brain sections from 12 months-old Tg-TauP301L mice (Model 2508, Taconic Biosciences, Rensselaer, N.Y., USA) without and with treatment with Compound-1 and Compound-4 for 6 months. […]
smiles,measurement,setting,value
"O=C(C1=C(O)C(c2ccccc2)N(c2ccc3c(c2)OCO3)C1=O)C1CC1 (centres unmarked) [Compound-1, 1-(1,3-benzodioxol-5-yl)-4-(cyclopropane-carbonyl)-3-hydroxy-2-phenyl-2H-pyrrol-5-one]","hippocampal content of hyperphosphorylated PHF-Tau (quantitative, [125I]-AT8 binding)",,significantly decreased hippocampal content of hyperphosphorylated PHF-Tau
same,PHF Tau hyperphosphorylation in hippocampal CA3 area (immunohistology),8 mg/kg/d in drinking water,largely absent
